Laboratory results taken from ChEMBL document CHEMBL2380218, “A facile chemo-, regio- and stereoselective synthesis and cholinesterase inhibitory activity of spirooxindole-pyrrolizine-piperidine hybrids” (Bioorg Med Chem Lett, 2013).

What was measured:
[1] = molecular target: Cholinesterase (Equus caballus, UniProt P81908); assay: Inhibition of equine serum BuChE using S-butyrylthiocholine chloride as substrate incubated for 15 mins prior to substrate addition measured after 30 mins by Ellman's method
[2] = molecular target: Acetylcholinesterase (Homo sapiens, UniProt P22303); assay: Inhibition of AChE (unknown origin) using acetylthiocholine iodide as substrate incubated for 15 mins prior to substrate addition measured after 30 mins by Ellman's method
Sequence of Acetylcholinesterase (P22303 whole entry): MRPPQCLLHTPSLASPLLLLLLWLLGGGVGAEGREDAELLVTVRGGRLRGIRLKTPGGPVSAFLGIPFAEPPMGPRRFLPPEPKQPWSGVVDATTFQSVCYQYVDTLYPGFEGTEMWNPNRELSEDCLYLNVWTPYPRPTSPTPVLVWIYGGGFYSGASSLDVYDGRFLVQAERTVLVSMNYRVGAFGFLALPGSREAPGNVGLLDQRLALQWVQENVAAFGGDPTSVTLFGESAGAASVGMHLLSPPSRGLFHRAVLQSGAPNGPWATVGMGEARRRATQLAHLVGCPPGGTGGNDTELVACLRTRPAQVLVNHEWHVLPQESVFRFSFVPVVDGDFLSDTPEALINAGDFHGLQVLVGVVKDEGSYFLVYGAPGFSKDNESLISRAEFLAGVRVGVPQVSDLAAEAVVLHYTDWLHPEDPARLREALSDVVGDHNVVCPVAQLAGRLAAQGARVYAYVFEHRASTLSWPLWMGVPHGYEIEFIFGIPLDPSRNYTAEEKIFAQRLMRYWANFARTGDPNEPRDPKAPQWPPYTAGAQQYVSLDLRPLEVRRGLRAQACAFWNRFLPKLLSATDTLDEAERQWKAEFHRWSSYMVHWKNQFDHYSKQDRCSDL

Sequence of Cholinesterase (P81908 whole entry): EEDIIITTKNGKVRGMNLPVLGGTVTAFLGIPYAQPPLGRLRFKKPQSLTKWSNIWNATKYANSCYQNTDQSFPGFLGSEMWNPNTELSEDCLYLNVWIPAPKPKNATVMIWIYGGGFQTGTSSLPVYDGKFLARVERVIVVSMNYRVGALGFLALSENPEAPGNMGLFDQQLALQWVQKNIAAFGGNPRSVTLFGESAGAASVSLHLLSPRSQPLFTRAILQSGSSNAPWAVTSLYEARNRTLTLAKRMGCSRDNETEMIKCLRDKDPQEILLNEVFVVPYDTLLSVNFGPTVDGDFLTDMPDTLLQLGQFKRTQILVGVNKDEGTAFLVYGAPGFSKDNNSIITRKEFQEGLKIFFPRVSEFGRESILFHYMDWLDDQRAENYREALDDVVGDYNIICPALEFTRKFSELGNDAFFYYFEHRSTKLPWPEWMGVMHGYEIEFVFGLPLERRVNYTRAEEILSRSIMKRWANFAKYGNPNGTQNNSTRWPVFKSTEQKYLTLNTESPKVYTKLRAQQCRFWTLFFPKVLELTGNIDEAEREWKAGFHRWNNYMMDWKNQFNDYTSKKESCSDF

Compound `O=C1/C(=C/c2cccc3ccccc23)CN(C(=O)[C@H]2C[C@H]3CCCN3[C@]23C(=O)Nc2cc(Cl)ccc23)C/C1=C\c1cccc2ccccc12` has an IC50 [1] of 9.65 µM and an IC50 [2] of 5.81 µM.

`O=C1/C(=C/c2ccccc2)CN(C(=O)[C@H]2C[C@H]3CCCN3[C@]23C(=O)Nc2cc(Cl)ccc23)C/C1=C\c1ccccc1` was tested, and the IC50 [1] was 15.4 µM and the IC50 [2] was 15.7 µM.

`Cc1ccccc1/C=C1\CN(C(=O)[C@H]2C[C@H]3CCCN3[C@]23C(=O)Nc2cc(Cl)ccc23)C/C(=C\c2ccccc2C)C1=O` gave an IC50 [1] of 15.1 µM and an IC50 [2] of 11.2 µM.

With `COc1ccccc1/C=C1\CN(C(=O)[C@H]2C[C@H]3CCCN3[C@]23C(=O)Nc2cc(Cl)ccc23)C/C(=C\c2ccccc2OC)C1=O` the IC50 [1] was 7.82 µM and the IC50 [2] was 14.5 µM.

Work on `O=C1/C(=C/c2ccccc2Cl)CN(C(=O)[C@H]2C[C@H]3CCCN3[C@]23C(=O)Nc2cc(Cl)ccc23)C/C1=C\c1ccccc1Cl` yielded an IC50 [1] of 17.4 µM and an IC50 [2] of 5.08 µM.

Compound `O=C1/C(=C/c2ccccc2F)CN(C(=O)[C@H]2C[C@H]3CCCN3[C@]23C(=O)Nc2cc(Cl)ccc23)C/C1=C\c1ccccc1F` has an IC50 [1] of 3.13 µM and an IC50 [2] of 29.5 µM.

`O=C1/C(=C/c2cccc([N+](=O)[O-])c2)CN(C(=O)[C@H]2C[C@H]3CCCN3[C@]23C(=O)Nc2cc(Cl)ccc23)C/C1=C\c1cccc([N+](=O)[O-])c1` was tested, and the IC50 [1] was 17.2 µM and the IC50 [2] was 4.28 µM.

For `O=C1/C(=C/c2ccc(Cl)cc2Cl)CN(C(=O)[C@H]2C[C@H]3CCCN3[C@]23C(=O)Nc2cc(Cl)ccc23)C/C1=C\c1ccc(Cl)cc1Cl`, the IC50 [1] was 20.1 µM and the IC50 [2] was 3.33 µM.

`Cc1ccc(/C=C2\CN(C(=O)[C@H]3C[C@H]4CCCN4[C@]34C(=O)Nc3cc(Cl)ccc34)C/C(=C\c3ccc(C)cc3)C2=O)cc1` was tested, and the IC50 [1] was 22.2 µM and the IC50 [2] was 7.6 µM.

`O=C1/C(=C/c2ccc(Cl)cc2)CN(C(=O)[C@H]2C[C@H]3CCCN3[C@]23C(=O)Nc2cc(Cl)ccc23)C/C1=C\c1ccc(Cl)cc1` gave an IC50 [1] of 28.2 µM and an IC50 [2] of 3.36 µM.

In the case of `O=C1/C(=C/c2ccc(F)cc2)CN(C(=O)[C@H]2C[C@H]3CCCN3[C@]23C(=O)Nc2cc(Cl)ccc23)C/C1=C\c1ccc(F)cc1`, the IC50 [1] is reported as 3.64 µM and the IC50 [2] is reported as 22.3 µM.
